Data set [1] has as its system A2780 human ovarian carcinoma cells. Put plainly: SRB proliferation assay (48 h) on A2780 cells. The conditions noted are these: for cytostatic activity in long-term SRB assay (in words): A2780 cells, 100–0.0017 µM; for Hill slope (span over cell lines): SRB curves, A2780 and ID8 cells; for A2780 Hill Slope / IC50: SRB, nonlinear regression, N/A = could not be calculated/had no effect. Type of data set: cell-based. As for the experimental part:
(§1) Cells were cultured under standard cell culture conditions, 37 °C, 5% CO2, humidified atmosphere. A2780 cells were cultured in RMPI 1640 medium supplemented with 10% fetal calf serum, 2 mM glutamine, and 1% penicillin–streptomycin (Sigma-Aldrich). ID8 cells were cultured in high-glucose DMEM (4.5 g/L glucose) supplemented with 4% fetal calf serum, 2 mM glutamine, 1% penicillin–streptomycin (Sigma-Aldrich), and 1% ITS supplement (Sigma-Aldrich I3146). U251 cells were maintained in MEM (Sigma-Aldrich), 10% fetal bovine serum (Sigma-Aldrich), 1% penicillin/streptomycin (Invitrogene), and 2 mM glutamine. MCF7 cells were maintained in MEM (Sigma-Aldrich), 10% fetal bovine serum (Sigma-Aldrich), 1% penicillin/streptomycin (Invitrogen, Waltham, MA, USA), and 2 mM glutamine. Capan2 cells were maintained in MEM (Sigma-Aldrich), 10% fetal bovine serum (Sigma-Aldrich), 1% penicillin/streptomycin (Invitrogen), and 2 mM glutamine. Human primary dermal fibroblasts were cultured in low-glucose DMEM (1 g/L glucose) supplemented with 20% fetal calf serum, 2 mM glutamine, and 1% penicillin–streptomycin (Sigma-Aldrich).
(§2) The SRB accumulation assay assesses protein content in a sample, and it was used to assess cell proliferation. The SRB accumulation assay was performed similarly to [68]. Cells were seeded in 96-well plates. The next day, cells were treated with the compounds for 48 h in the concentrations indicated in a cell incubator. At the end of treatment, cells were fixed with 10% trichloroacetic acid (TCA). Fixed cells were stained with SRB (0.4% m/v dissolved in 1% acetic acid) for 60 min. Fixed cells were washed in 1% acetic acid three times; acetic acid was removed, and cells were left to dry. Protein-bound SRB was released by adding 100 µL of 10 mM Tris base. Plates were measured in a plate photometer (Thermo Scientific Multiscan GO spectrophotometer, Waltham, MA, USA) at 540 nm. On each plate, wells were designed to contain untreated cells. In calculations, the readings for these wells were considered as 1, and all readings were expressed relative to these values.
(§3) Statistical analysis was performed using Graphpad Prism version 8.0.1. Values were tested for normal distribution using the D’Agostino and Pearson normality test. When necessary, values were log-normalized or were normalized using the Box–Cox normalization method, as indicated in the figure captions. Nonlinear regression was performed using the built-in “[Inhibitor] vs. response—variable slope (four parameters), least square fit” utility of Graphpad that yielded IC50 and Hill slope values.

In data set [2] the test system is human primary skin fibroblasts. Put plainly: SRB proliferation assay (48 h) on primary fibroblasts. Type of data set: cell-based. The method, then:
as §1, §2, §3

A short description of data set [3]: Determination of the distribution coefficients (logD), n-octanol/PBS. Type of data set: physicochemical. Conditions: n-octanol / PBS pH = 7.40. As for the experimental part: Prior to the experiments, n-octanol was saturated with aqueous PBS solution (pH = 7.40) and vice versa. The corresponding complex (approximately 0.2–0.3 mg) was dissolved in a mixture of 2.50 mL of pre-saturated n-octanol and 2.50 mL of pre-saturated PBS buffer, and the mixture was vigorously stirred for 3 days. According to the NMR stability measurements, this time was necessary to reach equilibrium between the various ionic complex species. Due to the lipophilic/hydrophilic character of the complexes, those with benzoyl protection or the non-sugar derivative could mostly be found in the n-octanol, while the acetyl and non-protected complexes could be found in the aqueous PBS phase. The appropriate separated solution was centrifuged (ScanSpeed 406G instrument, 4000 RPM for 5 min), and the absorption of the “stock solution” was measured (VWR UV-1600PC Spectrophotometer, 270–420 nm). Then 2.00 mL of stock solution was stirred vigorously with 16.00 mL of pre-saturated, clean n-octanol or PBS solution. After 1 day, the phases were separated and centrifuged, and the absorption of the solution was measured again. From the absorption difference of the stock solutions, the distribution coefficient (D) was calculated according to the previously described formulae [66].

In data set [4] the test system is A2780 cells. Put plainly: SRB assay on A2780 cells with antioxidant cotreatment (GSH, NAC, MitoTEMPO, vitamin E, Trolox). The data set is classed as cell-based, human. The conditions noted are these: 48 h. The method, then:
as §2

For data set [5], the system named is A2780 cells. Put plainly: Western blotting of 4-hydroxy-nonenal (4HNE), oxidative stress marker. Type of data set: cell-based, human. The conditions noted are these: concentration corresponding to IC50, 48 h. The method, then:
The preparation of protein extracts, the separation of protein extracts in SDS-polyacrylamide gel electrophoresis, and the subsequent Western blotting were performed as described in [70] using the antibodies in Table 4. Enhanced chemiluminescence was developed using ChemiDoc Imager, (Bio-Rad, Hercules, CA, USA). Densitometry was performed using Image Lab Touch Software, Bio-Rad, Hercules, CA, USA).
Background: A western blot detects proteins with antibodies after separation by electrophoresis.

Data set [6] relates to MCF7 cells (breast cancer). Put plainly: SRB proliferation assay (48 h) on MCF7 cells. The data set is classed as cell-based. The conditions noted are these: nonlinear regression. The method, then: as §1, §2, §3
The subject of data set [7] is U251 cells (glioblastoma model). Put plainly: SRB proliferation assay (48 h) on U251 cells. Conditions: nonlinear regression. Type of data set: cell-based. As for the experimental part:
as §1, §2, §3
Background: In SRB staining, fixed cells bind dye roughly in proportion to their protein.

Data set [8] relates to ID8 cells. Put plainly: MTT reduction assay (4 h, rapid toxicity) on ID8 cells. The data set is classed as cell-based. Conditions: above 10 µM concentration. The method, then:
as §1
(§4) The MTT reduction assay assesses the activity of mitochondrial complex I, and it was used to assess rapid toxicity. The MTT reduction assay was performed similarly to [67]. Cells were seeded in 96-well plates. The next day, cells were treated with the compounds for 4 h in the concentrations indicated in a cell incubator. At the end of treatment, MTT was added in 0.5 mg/mL final concentration, and cells were incubated at 37 °C in a cell incubator. Then, culture media was removed, the reduced MTT dye was resolved in dimethyl sulfoxide (DMSO), and plates were measured in a plate photometer (Thermo Scientific Multiscan GO spectrophotometer, Waltham, MA, USA) at 540 nm. On each plate, wells were designed to contain untreated/vehicle-treated cells. In calculations, the readings for these wells were considered as 1, and all readings were expressed relative to these values.
In general terms: Formazan colour is commonly taken as a measure of viable cells.

Data set [9] relates to A2780 cells. Put plainly: Annexin V-FITC, PI double staining (flow cytometry). Type of data set: cell-based, human. The conditions noted are these: concentration corresponding to IC50, 2 h, 4 h or 48 h. The method, then:
Annexin V–PI double staining was applied to assess apoptotic and necrotic cell death similar to [37, 38, 69]. A2780 cells were treated with the indicated compounds at the concentration corresponding to their IC50 value for 2, 4, and 48 h. The 4 and 48 h time points correspond to the time points for the MTT and SRB assays, while the 2 h time point reflects the optimum time point for the detection of apoptotic or necrotic cell death. Quadrants were set on the basis of the FITC and PI values observed for the vehicle-treated cells.

The test system of data set [10] is ID8 cells. Put plainly: SRB proliferation assay (48 h) on ID8 cells. Conditions: for cytostatic activity in long-term SRB assay (in words): ID8 cells; for IC50 / ID8 Hill Slope: SRB, nonlinear regression, N/A = could not be calculated/had no effect. The data set is classed as cell-based. The method, then:
as §1, §2, §3

In data set [11] the test system is Capan2 (pancreatic adenocarcinoma). Put plainly: SRB proliferation assay (48 h) on Capan2 cells. The data set is classed as cell-based. Conditions: nonlinear regression. As for the experimental part: as §1, §2, §3
Data set [12] has as its system A2780 cells. Put plainly: SRB assay on A2780 cells with or without 3 µM rucaparib. Type of data set: cell-based, human. The conditions noted are these: 48 h, vehicle (no rucaparib). As for the experimental part: as §2, §3
For data set [13], the system named is human primary skin fibroblasts. Put plainly: MTT reduction assay (4 h, rapid toxicity) on primary fibroblasts. Type of data set: cell-based. The method, then: as §1, §4
Data set [14] concerns A2780 human ovarian carcinoma cells. Put plainly: MTT reduction assay (4 h, rapid toxicity) on A2780 cells. Type of data set: cell-based. As for the experimental part: as §1, §4

The text below walks through data of publication PMC8508960, “Ruthenium Half-Sandwich Type Complexes with Bidentate Monosaccharide Ligands Show Antineoplastic Activity in Ovarian Cancer Cell Models through Reactive Oxygen Species Production” (International Journal of Molecular Sciences, 2021).

Values joined by “and” are separate entries in the source; they are usually repeats but may differ in a detail not shown here. Identical values can stand only once. “Also recorded” adds a separate entry of the source.

By IC50 is commonly meant the concentration at which inhibition is half-maximal. In general, logD refers to the decadic logarithm of the distribution of all forms, ionised or not, between an organic phase and buffer at a given pH. High values mean higher lipophilicity, low ones lower lipophilicity.

As for `Cc1ccc(C(C)C)cc1.F[P-](F)(F)(F)(F)F.O=C(OCC1OC(n2cc(-c3ccccn3)nn2)C(OC(=O)c2ccccc2)C(OC(=O)c2ccccc2)C1OC(=O)c1ccccc1)c1ccccc1.[Cl][Ru+]` (mixture of isomers) [Ru-2a], in data set [1], the “cytostatic activity in long-term SRB assay (in words)” value (from here on “cytostatic activity”) was “cytostatic properties”, the “Hill slope (span over cell lines)” value is on record as 2–3, the “A2780 Hill Slope” value is 1.95 and the half-maximal inhibitory concentration (IC50) was 900 nM. In data set [2] (SRB, nonlinear regression, N/A = could not be calculated/had no effect), the “Fibroblast Hill Slope” value is 0.78. Moreover, the “effect on SRB signal at 100 µM” value in [2] (primary human fibroblasts, 100 µM) is given as “reduced the SRB signal”. Also, the logD in data set [3] came to 2.85. In the data set with A2780 cells [4], the “effect of GSH and NAC cotreatment on the cytostatic effects of the complex” value is on record as “attenuated the cytostatic effects”; the “effect of MitoTEMPO on the cytostatic effects of the complex” value was “did not modulate the effects”. Also, the “expression of oxidative stress marker 4-hydroxy-nonenal (4HNE)” value in the data set on A2780 cells [5] is “increase in the expression”. Further, in data set [6], the IC50 amounted to 1290 nM and the “MCF7 Hill Slope” value is listed as 1.85. In addition, in data set [7], the half-maximal inhibitory concentration (IC50) came to 2820 nM and the “U251 Hill Slope” value was 1.75. For the same compound, the “effect on MTT signal above 10 µM” value in the data set on ID8 cells [8] was “reduced the MTT signal”. For the same compound, the “proportions of PI-positive, annexin V-positive and double-positive cells” value in the data set on A2780 cells [9] is “did not largely increase”. Also, in the data set on ID8 cells [10], the “cytostatic activity” value is on record as “cytostatic”; the IC50 is 1500 nM and 1530 nM; the “ID8 Hill Slope” value was 2.50. Also, in [11], the “Capan2 Hill Slope” value is listed as 2.43 and half-maximal inhibition (IC50) was put at 2180 nM. This compound also registered a half-maximal inhibitory concentration (IC50) in the data set with A2780 cells [12] of 1380 nM. Further, in data set [13], the “effect in short-term MTT assay, rapid toxicity (in words)” value (“effect in short-term MTT assay” for short) was “no effect”. Moreover, the “effect in short-term MTT assay” value in [14] is recorded as “cytostatic properties”. Further, the “effect on MTT signal above 10 µM” value in data set [14] (above 10 µM concentration) was “reduced the MTT signal”.
As to `Cc1ccc(C(C)C)cc1.F[P-](F)(F)(F)(F)F.O=C(OCC1OC(c2n[n+]3c(o2)-c2cccc[n+]2[Ru-]3[Cl])C(OC(=O)c2ccccc2)C(OC(=O)c2ccccc2)C1OC(=O)c1ccccc1)c1ccccc1` (mixture of isomers) [Ru-4], in [1], the “cytostatic activity” value is “cytostatic properties”, the “Hill slope (span over cell lines)” value is reported as 2–3, the “A2780 Hill Slope” value was 2.62 and the IC50 was 6190 nM. In addition, the “effect in long-term SRB assay (in words)” value in data set [2] (primary human fibroblasts) is listed as “no effect; also recorded: no activity”. The compound also returned a logD in data set [3] of 2.41. In addition, in the data set on A2780 cells [4], the “effect of GSH and NAC cotreatment on the cytostatic effects of the complex” value is recorded as “attenuated the cytostatic effects”; the “effect of MitoTEMPO on the cytostatic effects of the complex” value is recorded as “did not modulate the effects”. Also, in the data set on A2780 cells [5], the “expression of oxidative stress marker 4-hydroxy-nonenal (4HNE)” value was “increase in the expression”. Further, in data set [6], the IC50 stood at 3740 nM and the “MCF7 Hill Slope” value amounted to 2.01. In data set [7], the IC50 stood at 4170 nM and the “U251 Hill Slope” value was 2.46. In addition, in the data set on A2780 cells [9], the “proportions of PI-positive, annexin V-positive and double-positive cells” value is “did not largely increase”. Also, in the data set with ID8 cells [10], the “cytostatic activity” value was “cytostatic”, the IC50 was 5660 nM and the “ID8 Hill Slope” value was 3.04. Moreover, in [11], the “Capan2 Hill Slope” value was determined as 1.81 and the IC50 worked out at 3270 nM. Moreover, in the data set on A2780 cells [12], the IC50 came out at 6180 nM. For the same compound, the “effect in short-term MTT assay” value in data set [13] is recorded as “no effect”. Further, the “effect in short-term MTT assay” value in [14] is “cytostatic properties”.
